What is called EC50 is the concentration needed to bring the measured effect to its halfway point.

The results in this text go back to patent publication US20230382925A1, “MODULATORS OF CYSTIC FIBROSIS TRANSMEMBRANE CONDUCTANCE REGULATOR” (VERTEX PHARMACEUTICALS INCORPORATED, priority 2020, published 2023).

Like-named read-outs stand apart in the source and are kept apart here.

For the test, the target named is CFTR (Homo sapiens, UniProt P13569). The experiment in a line: Membrane Potential Dye, Enteroid Assay B. Format: cell-based. Put shortly:
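Human intestinal enteroid cells exposed to compound 18-24 h at 37 °C, then loaded with methyl oxonol membrane-potential dye plus CaCC blockers. Chloride transport triggered in chloride-free buffer with 10 μM forskolin, 100 μM IBMX, 300 nM Compound III; fluorescence read 15 min, expressed as % of triple-corrector/potentiator combination control.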

The mark [1] stands for this setting: Table 10, read-out: Ent. B EC50.

Chain of CFTR (P13569 with tags, fused parts or gaps DEL508-508): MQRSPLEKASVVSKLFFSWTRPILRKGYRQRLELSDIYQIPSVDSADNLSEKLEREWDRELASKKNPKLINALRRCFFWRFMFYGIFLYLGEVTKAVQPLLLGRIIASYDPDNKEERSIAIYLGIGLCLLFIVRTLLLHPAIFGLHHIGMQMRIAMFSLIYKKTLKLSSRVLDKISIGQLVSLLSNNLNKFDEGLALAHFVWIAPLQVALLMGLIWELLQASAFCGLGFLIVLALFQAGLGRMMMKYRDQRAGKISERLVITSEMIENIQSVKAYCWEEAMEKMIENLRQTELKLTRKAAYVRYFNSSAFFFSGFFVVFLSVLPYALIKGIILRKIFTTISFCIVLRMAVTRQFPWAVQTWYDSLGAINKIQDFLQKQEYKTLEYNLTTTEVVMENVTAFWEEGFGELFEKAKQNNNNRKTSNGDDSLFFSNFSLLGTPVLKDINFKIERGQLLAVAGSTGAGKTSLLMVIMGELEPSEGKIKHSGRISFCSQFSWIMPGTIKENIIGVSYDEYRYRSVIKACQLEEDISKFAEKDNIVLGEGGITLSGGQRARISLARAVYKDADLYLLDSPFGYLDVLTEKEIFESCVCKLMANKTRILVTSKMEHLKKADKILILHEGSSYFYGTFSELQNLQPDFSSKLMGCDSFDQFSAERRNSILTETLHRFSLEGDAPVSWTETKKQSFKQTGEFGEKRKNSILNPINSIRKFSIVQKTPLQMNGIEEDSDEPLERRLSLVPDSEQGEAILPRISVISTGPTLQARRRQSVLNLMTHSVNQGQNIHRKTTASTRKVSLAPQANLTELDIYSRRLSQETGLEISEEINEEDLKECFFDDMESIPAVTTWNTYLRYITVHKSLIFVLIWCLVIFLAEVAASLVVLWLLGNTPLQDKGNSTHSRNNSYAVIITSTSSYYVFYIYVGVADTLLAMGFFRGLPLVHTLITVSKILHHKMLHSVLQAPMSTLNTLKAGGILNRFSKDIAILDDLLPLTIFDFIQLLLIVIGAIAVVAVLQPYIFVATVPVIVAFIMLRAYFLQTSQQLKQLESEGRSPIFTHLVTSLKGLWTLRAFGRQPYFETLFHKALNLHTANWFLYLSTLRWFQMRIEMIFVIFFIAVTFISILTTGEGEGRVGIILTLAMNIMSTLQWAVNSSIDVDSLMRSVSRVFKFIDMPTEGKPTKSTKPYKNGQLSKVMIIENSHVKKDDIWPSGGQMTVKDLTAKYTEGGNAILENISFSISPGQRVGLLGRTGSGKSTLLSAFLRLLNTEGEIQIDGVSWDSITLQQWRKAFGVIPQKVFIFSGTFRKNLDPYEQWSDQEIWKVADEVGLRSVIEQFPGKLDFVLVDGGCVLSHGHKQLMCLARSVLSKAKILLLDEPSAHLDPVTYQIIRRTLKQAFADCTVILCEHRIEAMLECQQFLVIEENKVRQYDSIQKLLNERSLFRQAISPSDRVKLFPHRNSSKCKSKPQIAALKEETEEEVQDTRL

As for `Cc1cccc(C)c1-c1cc2nc(n1)NS(=O)(=O)c1cccc(c1)C(=O)N(C1CC3(C1)CN(C(=O)OC(C)C)C3)[C@H](CC1(C(F)(F)F)CC1)CO2` [Compound 133, Propan-2-yl 6-[(11R)-6-(2,6-dimethylphenyl)-2,2,13-trioxo-11-{[1-(trifluoromethyl)cyclopropyl]methyl}-9-oxa-2λ^6-thia-3,5,12,19-tetraazatricyclo[12.3.1.14,8]nonadeca-1(17),4,6,8(19),14(18),15-hexaen-12-yl]-2-azaspiro[3.3]heptane-2-carboxylate], the “Ent. B Max Activity (%)” value (Table 9) is “+++ (+++ is >60%)”. For the same compound, the EC50 (Table 9, read-out: Ent. B EC50) is less than 1000 nM.
As to `Cc1cccc(C)c1-c1cc2nc(n1)NS(=O)(=O)c1cccc(c1)C(=O)N(C1CC3(CCN(C(=O)[C@H](C)O)CC3)C1)[C@H](CC(C)C)CO2` [Compound 456], the “Ent. B Max Activity (%)” value (Table 9) is recorded as “+++ (+++ is >60%)”. Where the note is “Table 9, read-out: Ent. B EC50”, the 50% effective concentration (EC50) is less than 1000 nM.
For `Cc1cccc(C)c1-c1cc2nc(n1)NS(=O)(=O)c1cccc(c1)C(=O)N(C1CC3(C1)CN(C(=O)OC(C)C)C3)[C@H](CC(C)C)CO2` [Compound 102, Isopropyl 6-[(11R)-6-(2,6-dimethylphenyl)-11-isobutyl-2,2,13-trioxo-9-oxa-2λ^6-thia-3,5,12,19-tetrazatricyclo[12.3.1.14,8]nonadeca-1(18),4(19),5,7,14,16-hexaen-12-yl]-2-azaspiro[3.3]heptane-2-carboxylate], the “Ent. B Max Activity (%)” value is recorded as “+++ (+++ is >60%)”. Also, the EC50 (read-out: Ent. B EC50) was less than 1000 nM.
`COC(=O)N(C)C1(C)CC(N2C(=O)c3cccc(c3)S(=O)(=O)Nc3nc(cc(-c4c(C)cccc4C)n3)OC[C@H]2CC(C)(C)C)C1` (stereo in doubt) [Compound 241]: under “Table 10”, the “Ent. B Max Activity (%)” value is on record as “++ (++ is 30-60%)”. Moreover, under setting [1], the 50% effective concentration (EC50) was less than 1000 nM.
As for `COCCN1CCC2(CC1)CC(N1C(=O)c3cccc(c3)S(=O)(=O)Nc3nc(cc(-c4c(C)cccc4C)n3)OC[C@H]1CC1(C(F)(F)F)CC1)C2` [Compound 128, (11R)-6-(2,6-Dimethylphenyl)-12-[7-(2-methoxyethyl)-7-azaspiro[3.5]nonan-2-yl]-2,2-dioxo-11-[[1-(trifluoromethyl)cyclopropyl]methyl]-9-oxa-2λ^6-thia-3,5,12,19-tetrazatricyclo[12.3.1.14,8]nonadeca-1(18),4(19),5,7,14,16-hexaen-13-one], the “Ent. B Max Activity (%)” value is “+++ (+++ is >60%)”. Further, the EC50 (read-out: Ent. B EC50) was less than 1000 nM.
As for `Cc1cccc(C)c1-c1cc2cc(n1)NS(=O)(=O)c1cccc(n1)C(=O)N(C1CC3(CC3)C1)[C@H](CC1(C(F)(F)F)CC1)CO2` [Compound 425], the “Ent. B Max Activity (%)” value (Table 9) was “+++ (+++ is >60%)”. Also, where the note is “Table 9, read-out: Ent. B EC50”, the EC50 was less than 1000 nM.
As to `COCCNC(=O)O[C@H]1C[C@H](N2C(=O)c3cccc(c3)S(=O)(=O)Nc3nc(cc(-c4c(C)cccc4C)n3)OC[C@H]2CC(C)C)C1` (stereo in doubt) [Compound 364], the “Ent. B Max Activity (%)” value (Table 10) is “+++ (+++ is >60%)”. For the same compound, under setting [1], the half-maximal effective concentration (EC50) was less than 1000 nM.
Turning to `Cc1cccc(C)c1-c1cc2nc(n1)NS(=O)(=O)c1cccc(c1)C(=O)N(C1CC3(C1)CN(C(C)C)C3)[C@H](CC(C)C)CO2` [Compound 103, (11R)-6-(2,6-Dimethylphenyl)-11-isobutyl-12-(2-isopropyl-2-azaspiro[3.3]heptan-6-yl)-2,2-dioxo-9-oxa-2λ^6-thia-3,5,12,19-tetrazatricyclo[12.3.1.14,8]nonadeca-1(18),4(19),5,7,14,16-hexaen-13-one], the “Ent. B Max Activity (%)” value is “+++ (+++ is >60%)”. Further, the 50% effective concentration (EC50) (read-out: Ent. B EC50) is less than 1000 nM.
Consider `[H][C@]1(N2C(=O)c3cccc(c3)S(=O)(=O)Nc3nc(cc(-c4c(C)cccc4C)n3)OC[C@H]2CC(C)C)C[C@@]2(C[C@H](NC(=O)OC(C)C)C2)C1` (single isomer, unassigned) [Compound 123], for which the “Ent. B Max Activity (%)” value (Table 10) was “+++ (+++ is >60%)”. The EC50 under setting [1] is less than 1000 nM.
The corresponding values for `Cc1cccc(C)c1-c1cc2nc(n1)NS(=O)(=O)c1cccc(c1)C(=O)N([C@H]1C[C@@H](N(CCO)CCO)C1)[C@H](CC(C)(C)C)CO2` (stereo in doubt) [Compound 252] are “+ (+ is <300%)” and less than 1000 nM.
Consider `COC(=O)NC1CC(N2C(=O)c3cccc(c3)S(=O)(=O)Nc3nc(cc(-c4c(C)cccc4C)n3)OC[C@H]2CC2(C(F)(F)F)CC2)C1` (single isomer, unassigned) [Compound 58], for which, where the note is “Table 9”, the “Ent. B Max Activity (%)” value was “+++ (+++ is >60%)”. Further, under “Table 9, read-out: Ent. B EC50”, the EC50 is less than 1000 nM.
The corresponding values for `Cc1cccc(C)c1-c1cc2nc(n1)NS(=O)(=O)c1cccc(c1)C(=O)N(C1CC3(CCN(CCO)CC3)C1)[C@H](CC(C)C)CO2` [Compound 289] are “++ (++ is 30-60%)” and less than 1000 nM.
In the same order, the values of `Cc1cccc(C)c1-c1cc2nc(n1)NS(=O)(=O)c1cccc(c1)C(=O)N(C1CC3(CC(NC(=O)OC(C)C)C3)C1)[C@H](CC(C)(C)C)CO2` (single isomer, unassigned) [Compound 93] are “+++ (+++ is >60%)” and less than 1000 nM.
For `Cc1cccc(C)c1-c1cc2nc(n1)NS(=O)(=O)c1cccc(c1)C(=O)N([C@H]1C[C@@](C)(OC(F)(F)F)C1)[C@H](CC(C)(C)C)CO2` (single isomer, unassigned) [Compound 156], the “Ent. B Max Activity (%)” value (Table 10) is on record as “++ (++ is 30-60%)”. The EC50 under setting [1] was less than 1000 nM.
As to `CNC(=O)C1CC2(C1)CC(N1C(=O)c3cccc(c3)S(=O)(=O)Nc3nc(cc(-c4c(C)cccc4C)n3)OC[C@H]1CC(C)(C)C)C2` (stereo partly shown) [Compound 234], the “Ent. B Max Activity (%)” value (Table 10) was “+++ (+++ is >60%)”. Moreover, the EC50 under setting [1] is less than 1000 nM.
The corresponding values for `[H][C@]1(N2C(=O)c3cccc(c3)S(=O)(=O)Nc3nc(cc(-c4c(C)cccc4C)n3)OC[C@H]2CC(C)(C)C)C[C@@]2(C[C@H](NC(=O)OC3CC3)C2)C1` (stereo in doubt) [Compound 356] are “+++ (+++ is >60%)” and less than 1000 nM.
In the same order, the values of `CC(=O)N1CCC12CC(N1C(=O)c3cccc(c3)S(=O)(=O)Nc3nc(cc(-c4c(C)cccc4C)n3)OC[C@H]1CC(C)(C)C)C2` (stereo partly shown) [Compound 207] are “+++ (+++ is >60%)” and less than 1000 nM.
In the same order, the values of `Cc1cccc(C)c1-c1cc2nc(n1)NS(=O)(=O)c1cccc(c1)C(=O)N(C1CC3(C1)CC(C)(O)C3)[C@H](CC(C)(C)C)CO2` (single isomer, unassigned) [Compound 119] are “+++ (+++ is >60%)” and less than 1000 nM.
Take `Cc1cccc(C)c1-c1cc2nc(n1)NS(=O)(=O)c1cccc(c1)C(=O)N([C@H]1C[C@@H](N3CCC(OCC4CC4)CC3)C1)[C@H](CC(C)C)CO2` [Compound 386]: under “Table 9”, the “Ent. B Max Activity (%)” value is “+++ (+++ is >60%)”. The EC50 (Table 9, read-out: Ent. B EC50) was less than 1000 nM.
Turning to `Cc1cccc(C)c1-c1cc2nc(n1)NS(=O)(=O)c1cccc(c1)C(=O)N([C@H]1C[C@]3(C[C@H](NC(=O)C(C)C)C3)C1)[C@H](CC1(C(F)(F)F)CC1)CO2` (stereo partly shown) [Compound 246], for the setting “Table 10”, the “Ent. B Max Activity (%)” value was “+++ (+++ is >60%)”. The EC50 under setting [1] is less than 1000 nM.
Turning to `Cc1cccc(C)c1-c1cc2nc(n1)NS(=O)(=O)c1cccc(c1)C(=O)N(C1CC3(CC(N)C3)C1)[C@H](CC(C)C)CO2` (stereo in doubt) [Compound 291], the “Ent. B Max Activity (%)” value (Table 9) is recorded as “+++ (+++ is >60%)”. The EC50 (Table 9, read-out: Ent. B EC50) is less than 1000 nM.
In the case of `Cc1cccc(C)c1-c1cc2nc(n1)NS(=O)(=O)c1cccc(c1)C(=O)N(c1cnn(C)c1)[C@H](CC(C)C)CO2` [Compound 97, (11R)-6-(2,6-Dimethylphenyl)-11-isobutyl-12-(1-methylpyrazol-4-yl)-2,2-dioxo-9-oxa-2λ^6-thia-3,5,12,19-tetrazatricyclo[12.3.1.14,8]nonadeca-1(18),4(19),5,7,14,16-hexaen-13-one], for the setting “Table 10”, the “Ent. B Max Activity (%)” value is listed as “+++ (+++ is >60%)”. Also, the EC50 under setting [1] was less than 1000 nM.
As to `COC(=O)N(C)C1CC2(C1)CC(N1C(=O)c3cccc(c3)S(=O)(=O)Nc3nc(cc(-c4c(C)cccc4C)n3)OC[C@H]1CC(C)(C)C)C2` (stereo partly drawn) [Compound 94, Methyl ((2R,4r,6R)-6-((R)-1^6-(2,6-dimethylphenyl)-7-neopentyl-3,3-dioxido-5-oxo-9-oxa-3-thia-2,6-diaza-1(2,4)-pyrimidina-4(1,3)-benzenacyclononaphane-6-yl)spiro[3.3]heptan-2-yl)(methyl)carbamate], the “Ent. B Max Activity (%)” value (Table 10) was “++ (++ is 30-60%)”. Further, under setting [1], the 50% effective concentration (EC50) was less than 1000 nM.
In the same order, the values of `Cc1cccc(C)c1-c1cc2nc(n1)NS(=O)(=O)c1cccc(c1)C(=O)N([C@H]1C[C@H](OC(=O)NCc3ccccc3)C1)[C@H](CC(C)C)CO2` (stereo in doubt) [Compound 362] are “++ (++ is 30-60%)” and less than 1000 nM.
For the compound `Cc1cccc(C)c1-c1cc2nc(n1)NS(=O)(=O)c1cccc(c1)C(=O)N([C@H]1C[C@H](OC(=O)NCC3CCCCC3)C1)[C@H](CC(C)C)CO2` (stereo in doubt) [Compound 363], the “Ent. B Max Activity (%)” value (Table 10) is “++ (++ is 30-60%)”. Further, under setting [1], the EC50 is less than 1000 nM.
For `COC(=O)NC1CC2(C1)CC(N1C(=O)c3cccc(c3)S(=O)(=O)Nc3nc(cc(-c4c(C)cccc4C)n3)OC[C@H]1CC(C)(C)C(F)(F)F)C2` (single isomer, unassigned) [Compound 76], for the setting “Table 9”, the “Ent. B Max Activity (%)” value is “+++ (+++ is >60%)”. Moreover, where the note is “Table 9, read-out: Ent. B EC50”, the EC50 was less than 1000 nM.
Turning to `Cc1cccc(C)c1-c1cc2nc(n1)NS(=O)(=O)c1cccc(c1)C(=O)N(C1CC3(CCN(C4CC(F)(F)C4)CC3)C1)[C@H](CC(C)C)CO2` [Compound 276], the “Ent. B Max Activity (%)” value (Table 9) is listed as “+++ (+++ is >60%)”. Besides, the EC50 (Table 9, read-out: Ent. B EC50) was less than 1000 nM.
On to `Cc1cccc(C)c1-c1cc2nc(n1)NS(=O)(=O)c1cccc(c1)C(=O)N(C1CC3(CC(N(C)C)C3)C1)[C@H](CC(C)(C)C)CO2` (stereo partly shown) [Compound 462], for which the “Ent. B Max Activity (%)” value (Table 9) is given as “+++ (+++ is >60%)”. Further, under “Table 9, read-out: Ent. B EC50”, the EC50 was less than 1000 nM.
Consider `CCN1CCC2(CC1)CC(N1C(=O)c3cccc(c3)S(=O)(=O)Nc3nc(cc(-c4c(C)cccc4C)n3)OC[C@H]1CC(C)C)C2` [Compound 258], for which, for the setting “Table 9”, the “Ent. B Max Activity (%)” value is recorded as “+++ (+++ is >60%)”. Further, for the setting “Table 9, read-out: Ent. B EC50”, the EC50 was less than 1000 nM.
